Reference: patent US5639603A, “Synthesizing and screening molecular diversity” (Affymax Technologies N.V., priority 1993, dated 1997)
Where a SMILES comes first, the peptide text is derived from it. Where no end group is shown, it is not given here. [ ]: non-standard residue; d: D form.

Columns and labels:
[1] = tested on: anti-dynorphin B mAb D32.39; experiment: flow cytometry (FACS) staining of beads with mAb D32.39 and phycoerythrin-conjugated second antibody; type: binding, mouse; conditions: for blocking of D32.39 binding to library beads by preincubating the mAb with soluble peptide: flow cytometry, soluble peptide at final concentration 10 μM
Description: The binding of mAb D32.39 to control beads and to the bead library was analyzed by flow cytometry. […] By contrast, only a small fraction of the encoded library bound D32.39. Analysis of 10^5 events indicated ~2% of the library stained above background levels. […] The amplification reactions contained dUTP and uracil DNA glycosidase to prevent carryover contamination with soluble product from previous amplifications (see Longo et al., 1990, Gene 93: 125-128, incorporated herein by reference).
A portion of a library (typically 0.5-2 mg of beads) was suspended in blocking buffer (PBS, 1% BSA, 0.05% Tween-20) and incubated at room temperature for 1 hr. The beads were pelleted by centrifugation and resuspended in a solution of mAb D32.39 ([…] in blocking buffer). The suspension was incubated on ice for 30 min., pelleted by centrifugation, and washed with blocking buffer. The beads were then suspended in a solution of phycoerythrin-conjugated goat anti-mouse antibody (Molecular Probes) for 20 min. on ice. The beads were washed in blocking buffer and diluted in PBS for delivery into the fluorescence activated cell sorting (FACS) instrument (Becton Dickinson FACStar Plus). Beads which had bound the mAb D32.39 were identified by their acquired fluorescence. Individual beads from both the most brightly stained 0.17% of the library and from the region having the lowest fluorescence (ca. 98%) were sorted into PCR microfuge vials. Specific binding of D32.39 to the beads was blocked by preincubation of the mAb with the soluble peptide Ac-RQFKVVT-OH (SEQ ID NO:2) at a final concentration of 10 μM.

[2] = target: monoclonal antibody D32.39; experiment: competition binding experiment with radiolabelled tracer peptide on D32.39-coated wells; conditions: competition with 33P-labelled tracer LRRASLGGGRRQFKVVT 50 pM; wells coated with D32.39 0.1 μg/mL; 2 hr at 4° C.; IC50 taken as close to Kd
Description: The binding affinities of various peptides for the monoclonal antibody D32.39 were measured in a competition binding experiment. […] The peptide mixtures were added to polystyrene wells coated with D32.39 (0.1 μg/mL). Samples were incubated 2 hr. at 4° C., the wells washed with PBS, and the radioactivity associated with each well was counted and used to generate a competitive binding curve. Under the conditions of the assay the IC50 should be close to the dissociation constant (Kd) for the peptide.

[3] = target: anti-dynorphin B mAb D32.39; conditions: soluble hepta-peptide; see Cull et al.; cited from earlier work

Molecule	Kd [2] [nM]	further results
CC(=O)N[C@@H](CCCNC(=N)N)C(=O)N[C@@H](CCC(N)=O)C(=O)N[C@@H](Cc1ccccc1)C(=O)N[C@@H](CCCCN)C(=O)N[C@H](C(=O)N[C@H](C(=O)N[C@H](C(=O)O)[C@@H](C)O)C(C)C)C(C)C [Ac-RQFKVVT-OH] (Ac-RQFKVVT-OH)		blocking of D32.39 binding to library beads by preincubating the mAb with soluble peptide [1]: blocked
CC(=O)N[C@@H](CCCCN)C(=O)N[C@@H](CCC(N)=O)C(=O)N[C@@H](Cc1ccccc1)C(=O)N[C@@H](CCCCN)C(=O)N[C@H](C(=O)N[C@H](C(=O)N[C@@H](CCCCN)C(=O)N[C@H](C(=O)O)[C@@H](C)O)[C@@H](C)O)C(C)C [KQFKVTKT] (Ac-KQFKVTKT-OH)	340	
CC(=O)N[C@@H](CCC(N)=O)C(=O)N[C@@H](C(=O)N[C@@H](CCCNC(=N)N)C(=O)N[C@@H](CCC(N)=O)C(=O)N[C@@H](Cc1ccccc1)C(=O)N[C@@H](CCCCN)C(=O)N[C@H](C(=O)N[C@H](C(=O)O)[C@@H](C)O)[C@@H](C)O)C(C)C [QvRQFKTT] (Ac-Q[dV]RQFKTT-OH)	16	
CC(=O)N[C@H](C(=O)N[C@@H](Cc1ccccc1)C(=O)N[C@@H](CCCNC(=N)N)C(=O)N[C@@H](CCC(N)=O)C(=O)N[C@@H](Cc1ccccc1)C(=O)N[C@@H](CCCCN)C(=O)N[C@H](C(=O)N[C@H](C(=O)O)[C@@H](C)O)C(C)C)[C@@H](C)O [TFRQFKVT] (Ac-TFRQFKVT-OH)	0.29	
CC(=O)N[C@H](C(=O)N[C@@H](Cc1ccccc1)C(=O)N[C@@H](CCCNC(=N)N)C(=O)N[C@@H](C(=O)N[C@@H](Cc1ccccc1)C(=O)N[C@@H](CCCNC(=N)N)C(=O)N[C@H](C(=O)N[C@H](C(=O)O)[C@@H](C)O)C(C)C)C(C)C)[C@@H](C)O [TFRvFRVT] (Ac-TFR[dV]FRVT-OH)	1400	
CC(=O)N[C@H](C(=O)N[C@@H](CCC(N)=O)C(=O)N[C@@H](Cc1ccccc1)C(=O)N[C@@H](CCCCN)C(=O)N[C@H](C(=O)N[C@H](C(=O)N[C@@H](CCCCN)C(=O)N[C@H](C(=O)O)[C@@H](C)O)[C@@H](C)O)C(C)C)[C@@H](C)O [TQFKVTKT] (Ac-TQFKVTKT-OH)	560	
KQFKVTQT	410	
QQFKVVQT	370	
RQFKVVT (RQFKVVT-NH2) [H-Arg-Gln-Phe-Lys-Val-Val-Thr-NH2, C-terminal seven amino acid fragment of the opioid peptide dynorphin B; positive control]		staining by mAb D32.39 of beads carrying the sequence ([1]; 10 μm beads carrying peptide and 69-mer oligonucleotide tag, blank beads unstained): strongly stained; blocking of D32.39 binding to library beads by preincubating the mAb with soluble peptide [1]: completely blocked; Kd [3]: ~1 nM
RQFRTVQT	76	
TTRRFRVT	4.3	
TVRQFKTT	8.8	
